From publication PMC10791743, “Selective CK1α degraders exert antiproliferative activity against a broad range of human cancer cell lines” (Nature Communications, 2024)

Key:
[1] = Metabolic stability in cryopreserved hepatocytes, mouse; format: in vitro ADME; conditions: mouse, cryopreserved hepatocytes; read-out: Hepatocyte stability t1/2
Description: page 34: UHPLC-MS/MS System: Chromatographic separation was performed on an Acquity UPLC BEH […] with 6500+ Qtrap system. […] software suite. The UPLC column was maintained at 55 °C. Mobile phase A was 0.1% formic acid in MilliQ H2O and Mobile phase B was 0.1% formic acid in acetonitrile. The flow rate was 0.9 […] The mass spectrometer was operated in positive-ion mode with electrospray ionization. MRM transition m/z […] plasma stability and plasma protein binding. The following MS parameters were employed for analyte measurements: ion spray voltage 5 kV, temperature 550 °C, gas 1 and gas 2 were 60, entrance potential (EP): 10 V, declustering potential (DP): 50 V, collision energy (CE): 27 V, and collision cell exit potential (CXP): 16 V. Metabolic Stability in mouse and human cryopreserved hepatocytes. 10 mM test compounds were provided by Compound Sample Group. Diluted 10 mM test compounds and 30 mM positive control compounds (7-ethoxycoumarin) to 1 mM and 3 mM with DMSO in 96-well plates. Diluted 1 mM test compounds and 3 mM positive control compounds to 100 μM and 300 μM dosing solutions with ACN. Cryopreserved cells were thawed, isolated and suspended in Incubation Medium, then diluted with pre-warmed Incubation Medium to 0.5 × 10^6cells/mL. Added 198 μL of pre-warmed cell suspensions in 96 -well plates. Transferred 125 μL of stop solution (acetonitrile containing 200 ng/mL tolbutamide and 200 ng/mL labetalol as internal standards) in a set of pre- labeled 96-well plates. Spike d 2 μL dosing solution to each well of 96 -well plates in duplicates. For T0 Samples, mix ed to achieve a homogenous suspension for about 1 min, then immediately transferred 25 μL of each sample into well containing 125 μL of ice -cold stop solution followed by mixing. Incubated all plates at 37°C in a 95% humidified incubator at 5% CO 2 to start the reactions page 35: with constant shaking at about 600 rpm. At 15, 30, 60 and 90 min, mixed samples and then transferred 25 μL of each sample at each time point to well containing 125 μL of ice -cold stop solution followed by mixing. Medium Control (MC) sample plates (labeled as T0-MC and T90- MC) were prepared at T0 and T90 by adding the same components to each well except cell suspensions. At each corresponding time point, stopped the reactions by removing the plates from incubator and mixing with 125 μL of ice-cold stop solution. Vortexed the plates immediately on a plate shaker at 500 rpm for 10 minutes. Then, centrifuge d all sample plates at 3220 x g for 20 min at 4°C. After centrifugation, 80 μL/well of supernatant in the sample plates were transferred to another set of pre-labeled 96-well plates which containing 240 μL of ultra pure water according to the plate map. Analytical plates were sealed and stored at 4°C until LC-MS/MS analysis. Thawing Medium: Williams' Medium E containing 5% fetal bovine serum and 30% Perc oll solution and other supplements. Incubation Medium: Williams' Medium E (no phenol red) containing 2 mM L-Glutamine and 25 mM HEPES. Stop Solution: Acetonitrile containing 200 ng/mL tolbutamide and labetalol as internal standards. Dilution Solution: Ultra-pure water. The remaining percents of test articles after incubation were calculated by the follow equations: Equation ( 6): Use equation of first order kinetics [NT] […] The data was […] concatenated with a reversed decoy database for evaluating False Discovery Rate (FDR). […]

MOLM-13 cells = test: Lenalidomide competition assay (40 μM lenalidomide), MOLM-13 viability; format: cell-based, human; conditions: lenalidomide 40 μM
Description: Having identified SJ7095 as a compound with a potent antiproliferative effect in MOLM-13 cells, we next examined whether the observed effect was CRBN-dependent. […] In an orthogonal approach, we tested SJ7095 in wild-type and CRBN-knockout MOLM-13 cells in a cell viability assay (Supplementary Fig. 1b).
MOLM-13 cells were plated in Corning 8804BC white 384-well assay plates at the appropriate cell number per well and incubated overnight at 37 °C in a humidified 5 % CO2 incubator. Compounds were transferred to the assay plate from a dose-response plate using a Labcyte Echo 650 Acoustic Liquid Handler (Beckman Coulter , USA). Cytotoxicity was determined following 72 h of incubation using Promega’s CellTiter-Glo reagent according to the manufacturer’s recommendation.
Luminescence was measured on the Envision plate reader (PerkinElmer, USA). Raw luminescence relative light unit (RLU) values for each compound at each concentration were normalized to obtain % activity using the following equation (1): 100 × [(mean(negctrl) – compound)/(mean (negctrl) – mean (posctrl))]. The % activity was converted to % viability using the following equation (2):
(100 – % activity), and then pooled from replicate experiments prior to fitting. Here, negctrl and posctrl refer to the negative (DMSO) and positive controls (staurosporine) on each plate. […]

With O=C1CCC(N2Cc3cc(Nc4noc5ccccc45)ccc3C2=O)C(=O)N1 (centres unmarked) [SJ3149] the half-life at 1 µM [1] was over 3.6 h.
In the case of O=C1CCC(N2Cc3c(CNC(=O)c4ccc(F)cc4)cccc3C2=O)C(=O)N1 (centres unmarked) [SJ7095], the “Antiproliferative effect in presence of excess lenalidomide” value (MOLM-13 cells) is reported as “abrogating the antiproliferative effects”.
